Results published in patent US20240368135A1 (VERTEX PHARMACEUTICALS INCORPORATED, priority 2021, published 2024).
pIC50: −log10 of the molar value.

target: human NaV 1.8 (Homo sapiens, UniProt Q9Y5Y9); test: E-VIPR assay detecting and measuring NaV inhibition properties; format: cell-based; conditions: HEK cells expressing truncated human NaV 1.8; in the presence of human serum (compound numbers followed by *); read-out: IC50 in the E-VIPR Assay, performed in the presence of human serum
Description: Sodium ion channels are voltage-dependent proteins that can be activated by inducing membrane voltage changes by applying electric fields. The electrical stimulation instrument and methods of use, referred to as E-VIPR, are described in International Publication No. WO 2002/008748 A3 and C.-J. Huang et al. Characterization of voltage-gated sodium channel blockers by electrical stimulation and fluorescence detection of membrane potential, 24 Nature Biotech. 439-46 (2006), both of which are incorporated by reference in their entirety. The instrument comprises a microtiter plate handler, an optical system for exciting the coumarin dye while simultaneously recording the coumarin and oxonol emissions, a waveform generator, a current- or voltage-controlled amplifier, and parallel electrode pairs that are inserted into assay plate wells. Under integrated computer control, this instrument passes user-programmed electrical stimulus protocols to cells within the wells of the microtiter plate.
16-20 hours prior to running the assay on E-VIPR, HEK cells expressing a truncated form of human NaV 1.8 with full channel activity were seeded into microtiter 384-well plates, pre-coated with matrigel, at a density of 25,000 cells per well. 2.5-5% KIR2.1 Bacmam virus was added to the final cell suspension before seeding into cell plates. HEK cells were grown in Dulbecco's Modified Eagle's Medium (DMEM) supplemented with 10% FBS (Fetal Bovine Serum, qualified; Sigma #F4135), 1% NEAA (Non-Essential Amino Acids, Gibco #11140), 1% HEPES (Gibco #15630), 1% Pen-Strep (Penicillin-Streptomycin; Gibco #15140) and 5 μg/ml Blasticidin (Gibco #R210-01). Cells were expanded in vented cap cell culture flasks, with 90-95% humidity and 5% CO2.
Human Serum (HS, Millipore #S1P1-01KL, or Sigma SLBR5469V and SLBR5470V as a 50%/50% mixture, for 25% assay final concentration) • Bath 1 Buffer: • Sodium Chloride 160 mM (9.35 g/L), Potassium Chloride, 4.5 mM (0.335 g/L), Glucose 10 mM (1.8 g/L), Magnesium Chloride (Anhydrous) 1 mM (0.095 g/L), Calcium Chloride 2 mM (0.222 g/L), HEPES 10 mM (2.38 g/L) in water. • Na/TMA C1 Bath 1 Buffer: • Sodium Chloride 96 mM (5.61 g/L), Potassium Chloride 4.5 mM (0.335 g/L), Tetramethylammonium (TMA)-Cl 64 mM (7.01 g/L), Glucose 10 mM (1.8 g/L), Magnesium Chloride (Anhydrous) 1 mM (0.095 g/L), Calcium Chloride 2 mM (0.222 g/L) HEPES 10 mM (2.38 g/L) in water. • Hexyl Dye Solution (2× concentration): • Bath 1 Buffer containing 0.5% P-cyclodextrin (made fresh prior to each use, Sigma #C4767), 8 μM CC2-DMPE and 2 μM DiSBAC6(3). The solution was made by adding 10% Pluronic F127 stock equal to combined volumes of CC2-DMPE and DiSBAC6(3). The order of preparation was first mix Pluronic and CC2-DMPE, then add DiSBAC6(3), then while vortexing add Bath 1/p-Cyclodextrin.
Compound Loading Buffer (2× concentration): Na/TMA C1 Bath1 Buffer containing HS (omitted in experiments run in the absence of human serum (HS)) 50%, VABSC-1 1 mM, BSA 0.2 mg/ml (in Bath-1), KCl 9 mM, DMSO 0.625%.
1) To reach the final concentration in each well, 375 nL of each compound was pre-spotted (in neat DMSO) into polypropylene compound plates at 240× desired final concentration from an intermediate stock concentration of 0.075 mM, in an 11 point dose response, 3-fold dilution, resulting in a top dose of 300 nM final concentration in the cell plate. Vehicle control (neat DMSO), and positive control (an established NaV1.8 inhibitor, 25 μM final in assay in DMSO) were added manually to the outermost columns of each plate respectively. The compound plate was backfilled with 45 μL per well of Compound Loading Buffer resulting in a 240 fold dilution of compound following a 1:1 transfer of compound into the cell plate (see Step 6). Final DMSO concentration for all wells in the assay was 0.625% (0.75% DMSO was supplemented to the Compound Loading Buffer for a final DMSO concentration of 0.625%). […]

Sequence of human NaV 1.8 (Q9Y5Y9 126-399 limits assumed): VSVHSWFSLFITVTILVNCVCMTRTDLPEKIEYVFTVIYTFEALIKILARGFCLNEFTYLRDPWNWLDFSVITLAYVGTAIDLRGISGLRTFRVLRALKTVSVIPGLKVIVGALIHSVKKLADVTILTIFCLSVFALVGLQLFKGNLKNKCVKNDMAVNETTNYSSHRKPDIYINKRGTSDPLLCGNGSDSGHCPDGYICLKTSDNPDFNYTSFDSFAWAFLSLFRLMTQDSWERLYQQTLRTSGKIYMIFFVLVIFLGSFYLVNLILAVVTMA
Sequence of human NaV 1.8 (Q9Y5Y9 660-890 limits assumed): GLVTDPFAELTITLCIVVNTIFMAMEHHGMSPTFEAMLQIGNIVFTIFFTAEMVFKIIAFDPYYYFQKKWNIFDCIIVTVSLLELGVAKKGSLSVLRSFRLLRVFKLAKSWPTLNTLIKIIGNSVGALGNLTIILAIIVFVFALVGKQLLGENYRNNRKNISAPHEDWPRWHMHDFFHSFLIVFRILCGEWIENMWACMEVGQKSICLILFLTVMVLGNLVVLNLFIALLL
Sequence of human NaV 1.8 (Q9Y5Y9 1148-1722 limits assumed): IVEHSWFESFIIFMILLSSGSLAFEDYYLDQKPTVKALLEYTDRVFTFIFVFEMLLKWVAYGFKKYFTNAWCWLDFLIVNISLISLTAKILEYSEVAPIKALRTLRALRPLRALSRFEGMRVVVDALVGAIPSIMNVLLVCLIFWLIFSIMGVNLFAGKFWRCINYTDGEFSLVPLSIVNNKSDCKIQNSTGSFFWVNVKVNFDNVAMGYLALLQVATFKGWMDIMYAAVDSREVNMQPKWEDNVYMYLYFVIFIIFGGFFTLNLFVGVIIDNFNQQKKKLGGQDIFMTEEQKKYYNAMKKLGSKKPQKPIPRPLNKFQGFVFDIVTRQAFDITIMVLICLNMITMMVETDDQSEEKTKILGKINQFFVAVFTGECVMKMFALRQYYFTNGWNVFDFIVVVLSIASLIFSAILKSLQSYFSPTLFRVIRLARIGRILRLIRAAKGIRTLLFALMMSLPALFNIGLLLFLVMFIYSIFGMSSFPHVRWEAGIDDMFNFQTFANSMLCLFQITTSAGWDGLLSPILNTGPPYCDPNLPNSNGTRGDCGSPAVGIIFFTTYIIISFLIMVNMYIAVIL

pIC50	SMILES
≤ 6.00	COc1c([C@H]2[C@@H](C)[C@@H](C)O[C@@H]2C(=O)Nc2ccnc(C(O)CO)c2)ccc(F)c1F (relative stereo) [Compound 719, rel-(2S,3R,4R,5R)-3-(3,4-difluoro-2-methoxyphenyl)-N-(2-(1,2-dihydroxyethyl)pyridin-4-yl)-4,5-dimethyltetrahydrofuran-2-carboxamide]
6.00 to 7.00	COc1c([C@H]2[C@H](C(=O)Nc3ccnc(C(O)CO)c3)OC(C)(C)[C@H]2C)ccc(F)c1F (relative stereo) [Compound 721, rel-(2R,3S,4S)-3-(3,4-difluoro-2-methoxyphenyl)-N-(2-(1,2-dihydroxyethyl)pyridin-4-yl)-4,5,5-trimethyltetrahydrofuran-2-carboxamide]
≤ 6.00	COc1c([C@@H]2[C@@H](C(=O)Nc3ccnc([S+](C)[O-])c3)O[C@](C)(C(F)(F)F)[C@@H]2C)ccc(F)c1F (single isomer, unassigned) [Compound 6]
> 8.00	COc1c([C@H]2[C@H](C(=O)Nc3ccnc([S+](C)[O-])c3)O[C@@](C)(C(F)(F)F)[C@H]2C)ccc(F)c1F (single isomer, unassigned) [Compound 9]
7.00 to 8.00	CNCc1cc(NC(=O)[C@@H]2O[C@@](C)(C(F)(F)F)[C@@H](C)[C@H]2c2ccc(F)c(F)c2OC)c(F)cn1 (single isomer, unassigned) [Compound 13, 3-(3,4-difluoro-2-methoxy-phenyl)-N-[5-fluoro-2-(methylaminomethyl)-4-pyridyl]-4,5-dimethyl-5-(trifluoromethyl)tetrahydrofuran-2-carboxamide]
≤ 6.00	COc1c(C2C(C(=O)Nc3ccn(C)c(=O)c3)OC(C)(C(F)(F)F)C2C)ccc(F)c1F (single isomer, unassigned) [Compound 27, 3-(3,4-difluoro-2-methoxy-phenyl)-4,5-dimethyl-N-(1-methyl-2-oxo-4-pyridyl)-5-(trifluoromethyl)tetrahydrofuran-2-carboxamide]

same assay, conditions: HEK cells expressing truncated human NaV 1.8; no human serum; read-out: IC50 in the E-VIPR Assay

pIC50	SMILES
6.00 to 7.00	COc1c([C@@H]2[C@H](C)[C@H](C)O[C@H]2C(=O)Nc2ccnc(C(O)CO)c2)ccc(F)c1F (relative stereo) [Compound 718, rel-(2R,3S,4S,5S)-3-(3,4-difluoro-2-methoxyphenyl)-N-(2-(1,2-dihydroxyethyl)pyridin-4-yl)-4,5-dimethyltetrahydrofuran-2-carboxamide]
> 8.00	COc1c([C@H]2[C@H](C(=O)Nc3ccnc([S+](C)[O-])c3)O[C@@](C)(C(F)(F)F)[C@H]2C)ccc(F)c1F (single isomer, unassigned) [Compound 8]
6.00 to 7.00	CCOc1c([C@@H]2[C@@H](C(=O)Nc3ccnc(S(C)(=N)=O)c3)O[C@](C)(C(F)(F)F)[C@@H]2C)ccc(F)c1F (single isomer, unassigned) [Compound 10]
≤ 6.00	CCOc1c([C@@H]2[C@@H](C(=O)Nc3ccnc(S(C)(=N)=O)c3)O[C@](C)(C(F)(F)F)[C@@H]2C)ccc(F)c1F (single isomer, unassigned) [Compound 11]
> 8.00	COc1c([C@H]2[C@H](C(=O)Nc3ccnc(CO)c3)O[C@@](C)(C(F)(F)F)[C@H]2C)ccc(F)c1F (single isomer, unassigned) [Compound 14]
7.00 to 8.00	COc1c([C@H]2[C@H](C(=O)Nc3cnc4c(c3)CCC4O)O[C@@](C)(C(F)(F)F)[C@H]2C)ccc(F)c1F (single isomer, unassigned) [Compound 17]
> 8.00	COc1c([C@H]2[C@H](C(=O)Nc3cc(C(O)CF)ncc3F)O[C@@](C)(C(F)(F)F)[C@H]2C)ccc(F)c1F (single isomer, unassigned) [Compound 24]
> 8.00	COc1c(C2C(C(=O)Nc3ccn(C)c(=O)c3)OC(C)(C(F)(F)F)C2C)ccc(F)c1F (single isomer, unassigned) [Compound 28, 3-(3,4-difluoro-2-methoxy-phenyl)-4,5-dimethyl-N-(1-methyl-2-oxo-4-pyridyl)-5-(trifluoromethyl)tetrahydrofuran-2-carboxamide]
≤ 6.00	COc1c(C2C(C(=O)Nc3cccnc3)OC(C)(C(F)(F)F)C2C)ccc(F)c1F (single isomer, unassigned) [Compound 29, 3-(3,4-difluoro-2-methoxy-phenyl)-4,5-dimethyl-N-(3-pyridyl)-5-(trifluoromethyl)tetrahydrofuran-2-carboxamide]
> 8.00	COc1c(C2C(C(=O)Nc3cccnc3)OC(C)(C(F)(F)F)C2C)ccc(F)c1F (single isomer, unassigned) [Compound 30, 3-(3,4-difluoro-2-methoxy-phenyl)-4,5-dimethyl-N-(3-pyridyl)-5-(trifluoromethyl)tetrahydrofuran-2-carboxamide]
≤ 6.00	COCCOc1cc(NC(=O)C2OC(C)(C(F)(F)F)C(C)C2c2ccc(F)c(F)c2OC)cnn1 (single isomer, unassigned) [Compound 33, 3-(3,4-difluoro-2-methoxy-phenyl)-N-[6-(2-methoxyethoxy)pyridazin-4-yl]-4,5-dimethyl-5-(trifluoromethyl)tetrahydrofuran-2-carboxamide]
7.00 to 8.00	COCCOc1cc(NC(=O)C2OC(C)(C(F)(F)F)C(C)C2c2ccc(F)c(F)c2OC)cnn1 (single isomer, unassigned) [Compound 34, 3-(3,4-difluoro-2-methoxy-phenyl)-N-[6-(2-methoxyethoxy)pyridazin-4-yl]-4,5-dimethyl-5-(trifluoromethyl)tetrahydrofuran-2-carboxamide]
≤ 6.00	COc1c(C2C(C(=O)Nc3ccncn3)OC(C)(C(F)(F)F)C2C)ccc(F)c1F (single isomer, unassigned) [Compound 35, 3-(3,4-difluoro-2-methoxy-phenyl)-4,5-dimethyl-N-pyrimidin-4-yl-5-(trifluoromethyl)tetrahydrofuran-2-carboxamide]
> 8.00	COc1c(C2C(C(=O)Nc3ccncn3)OC(C)(C(F)(F)F)C2C)ccc(F)c1F (single isomer, unassigned) [Compound 36, 3-(3,4-difluoro-2-methoxy-phenyl)-4,5-dimethyl-N-pyrimidin-4-yl-5-(trifluoromethyl)tetrahydrofuran-2-carboxamide]
≤ 6.00	COc1c(C2C(C(=O)Nc3cncnc3)OC(C)(C(F)(F)F)C2C)ccc(F)c1F (single isomer, unassigned) [Compound 37, 3-(3,4-difluoro-2-methoxy-phenyl)-4,5-dimethyl-N-pyrimidin-5-yl-5-(trifluoromethyl)tetrahydrofuran-2-carboxamide]
> 8.00	COc1c(C2C(C(=O)Nc3cncnc3)OC(C)(C(F)(F)F)C2C)ccc(F)c1F (single isomer, unassigned) [Compound 38, 3-(3,4-difluoro-2-methoxy-phenyl)-4,5-dimethyl-N-pyrimidin-5-yl-5-(trifluoromethyl)tetrahydrofuran-2-carboxamide]
6.00 to 7.00	COc1c(C2C(C(=O)Nc3ccc(P(C)(C)=O)cc3)OC(C)(C(F)(F)F)C2C)ccc(F)c1F (single isomer, unassigned) [Compound 39, 3-(3,4-difluoro-2-methoxy-phenyl)-N-(4-dimethylphosphorylphenyl)-4,5-dimethyl-5-(trifluoromethyl)tetrahydrofuran-2-carboxamide]
